Laboratory results from US20050059977A1, “Monitoring circadian activity” (priority 2003, published 2005).

Experiments:
pineal gland = assay: In vivo pineal microdialysis with drug infusion through the dialysis membrane; on-line HPLC of melatonin and serotonin (5-HT) secretion; design: species or system rat
Procedure: Adult Sprague Dawley male rats (220-225 g) were house at 20-25° C. with lights on at 11 am (LD 14:10). Food and were available ad libitum throughout the experiment. Illumination was supplied by white fluorescent lamps (600 lux at cage level). Rats were placed in the LD cycles for at least 2 weeks before the start of surgery.
The animals were deeply anesthetized with a combination of Ketamine (10 mg/ml, 0.5 ml/100 g weight, i.p.) and Xylazine (2 mg/ml, 0.5 ml/100 g weight, i.p.). The animals' heads were shaved and positioned in a stereotaxic instrument. A longitudinal incision (approximately 2.5 cm) is made along the midline in the skin from anterior (level of the eyes) to posterior (base of the skull). The sagittal and lambdoid sutures were then exposed by scraping away the periosteum to the temporal muscles. […] The dura was exposed after grinding away the top bone, which was removed using iris forceps after making a cross cut with a scalpel blade (FIG. 1B). […] Bleeding was controlled with cotton wool pledget, or flushed with water and suctioned. Three stainless steel screws were placed nearby in the parietal and frontal bones to serve as anchors. After the animal's head was repositioned 30 degrees downward, the dura matter below the confluence of sinuses was then lifted 5 mm with a hook fixed to the stereotaxic frame (FIG. 1C). The dorsal cerebellum was then pressed downward with a glass blunt tube to expose the pineal gland. The tentorium cerebelli which covers the posterior surface of the pineal and connects to the confluence of the sinuses, was then carefully reflected to visualize the pineal with a micro sharp hook, while the bleeding around the pineal was flushed and suctioned. The pineal vein is visible in the midline of the pineal posterior surface (FIG. 1D) which divides the pineal gland into two parts and drains it to the confluence of the sinuses. The tip of the guide cannula (CMA Microdialysis, N. Chelmsford, Mass.) was then positioned adjacent to either side of the exposed pineal before the skull was closed with dental cement. The rats were allowed to recover for 24 hours before experimentation.
(§1) Pineal microdialysis was carried out as follows. Immediately before sampling, the rat was anesthetized with halothane briefly, the stylet (or dummy probe) was replaced with a microdialysis proble (CMA12, 20 KD cut off, membrane length 4 mm)(CMA Microdialysis, N. Chelmsford, Mass.) and fixed with plastic glue. The dialysis probe was continuously infused via the microbore PEEK tubing (0.65 mm OD, 0.12 mm ID) at a flow rate of 2 ul/min with artificial CSF (Harvard, Holliston, Mass.). Samples were collected at 10 minutes intervals via the PEEK tube into a 20 ul loop of Pollen 8 automatic injector (BAS, West Lafayette, Ind.), which was on-line with the HPLC system. The sample loop was set to be retained in the load position during the 10 minute cycles and was automatically switched to the injection positions briefly, after which the cycle was repeated. The rats were linked to the apparatus for dialysis through a quartz dual channel swivel (Harvard/Instech, Boston, Mass.) to prevent the tubing from entanglement. […]
The analytical condition for the simultaneous detection of 5-HT/NAS/melatonin was based on Drijffiout et al. (J. Neurochem. 61: 936-942 (1993)) with minor modifications. A Shimadzu pump (Shimadzu, Columbia, USA) was used in conjunction with a Shimadzu fluorescence detector (FD, excitation: 280 nm, emission: 345 nm). […]

NAT = assay: Pineal in situ hybridization for NAT RNA after drug infusion by microdialysis; type: in vivo, rat
Procedure: as §1, with “entanglement. All pharmacological agents with molecular weights less than […] were delivered to the pineal through the microdialysis tubing. All drugs were infused after dissolving in artificial CSF solution at final concentrations indicated and for the duration described in the figure legends.” for “entanglement.”

[1] = dibutyryl cAMP 10 mM infused through the microdialysis tube during the day
[2] = ISO 1 uM infused into pineal for 2.5 hours during the day (14:30 to 17:00), days 7-10 of microdialysis, single rat

SMILES | melatonin production (pineal gland; [1]) | NAT gene induction in pineal sections (in situ hybridization) (NAT; [1]) | effect on serotonin (5-HT) output as melatonin output increases (pineal gland; [2]) | time after ISO treatment at which melatonin reaches a maximum (pineal gland; [2]) [h] | time after ISO withdrawal within which melatonin decreases (pineal gland; [2]) [h] | time after infusion at which melatonin levels begin to increase (pineal gland; [2]) [h] | NAT RNA expression in pineal sections (in situ hybridization) (NAT; ISO 1 uM infused through dialysis membrane during the day, 12th day of microdialysis, n=5 rats)
CCCC(=O)Nc1ncnc2c1ncn2[C@@H]1O[C@@H]2COP(=O)(O)O[C@H]2[C@H]1OC(=O)CCC [dibutyryl-cAMP] | activated | NAT gene induction is detected | – | – | – | – | –
CC(C)NCC(O)c1ccc(O)c(O)c1 (stereo not shown) [ISO, Isoprenaline] | – | – | decreases in a perfectly inverse manner | 2 | ≤ 1 | 1 | restricted to the region surrounding the probe membrane
